Legend:
Assay type in all cases: cell-based, human
HPAC cells = assay: Apoptosis/necrosis by FACS (Annexin-V-FITC/PI), HPAC
Method: (§1) Cells. Human pancreatic cell lines HPAC, MIAPaCa-2 and PANC-1 were obtained from the ATCC. (Manassas, Va.). The cells were maintained in DMEM media with Gln and high glucose (Mediatech, Manassas, Va.) with 10% fetal bovine serum (FBS, HyClone, Logan, Utah) and pencillin/streptomycin.
FACS Analysis. Apoptosis was measured by FACS analysis using Annexin-V-FITC and propidium iodide (PI) (Biovision, Mountain View, Calif.) as probes (Ahn et al., 2003). Mitochondrial membrane potential was measured by FACS analysis using JC-1 (Biovision) as a probe (Ahn et al., 2003). Cell cycle was analyzed on ethanol-fixed, RNaseA-treated cells staining with PI. In each spectrum, 10,000 gated events were recorded and analyzed with a FACSCalibur (BD Biosciences. San Jose, Calif.). All experiments were done in triplicate, error bars represent one standard deviation. Caspase inhibitor I (zVAD-fmk) was obtained from Calbiochem.

[1] = system: Caspase 2, 3 and 9 in MIAPaCa-2 cells; assay: In situ caspase activity by flow cytometry, MIAPaCa-2; settings: MIAPaCa-2, 10 μM, after 48 hrs
Method: as §1
Caspase Activity After 48 h treatment with 10 μM Compound 10, HPAC, MIAPaCa-2 and PANC-1 cells were harvested by trypsinization and resuspended in DMEM media with 10% FBS. The cells were incubated with caspase substrates for 1 h at 37° C., 5% CO2, then probed with Annexin-V-Cy5 and sytox blue. Caspase +ve cells were gated as shown in the histograms and these cells are indicated on the Annexin-V-Cy5/sytox blue spectra as blue cells. In situ caspase activity was assayed using fluorescent substrates. For Caspase 2, FITC-VDVAD-fmk (Biovision K182-100), for Caspase 3, FITC-DEVD-fmk (K183-100) and for Caspase 9, FITC-LEHD-fmk (K199-100) was used. These substrates bind irreversibly to their respective activated caspases, and caspase activation was quantitated by flow cytometry. […] Caspase activation, apoptosis and necrosis were measured simultaneously using a violet, blue and red laser in a BD LSRII flow cytometer.

EOC cells [2] = assay: Flow cytometry with Hoechst and Propidium iodide staining (DNA fragmentation); settings: Compound 1 10 g/ml (as printed, FIG. 1B legend), 24 h
Excerpt: Cell lines and culture conditions. Established human EOC cell lines, A2780 and A2780/CP70 (gifts from Dr. T C Hamilton) (Behrens et al, 1997) were propagated in RPMI plus 10% fetal bovine serum (Gemini Bio-Products, Woodland, Calif.). Primary EOC cell lines were isolated from malignant ovarian ascites or explanted from ovarian tumors and cultured as previously described (Alvero et al, 2006). Purity of the EOC cells was 100% as determined by immuno-staining for cytokeratin 7 antigen. All cell lines were grown at 37° C. in a 5% CO2 atmosphere.
Flow cytometry with Hoechst and Propidium iodide staining. After treatment, cells were trypsinized, washed twice with PBS, and resuspended at 1×10^6 cells/ml. Cells were then stained with 5 μg/ml Hoechst 33342 (Invitrogen-Molecular Probes, Carlsbad, Calif.) and 1 μg/ml Propidium iodide (Sigma Aldrich) and incubated for 15 mins in the dark. Afterwards, data was acquired using BD LSR II System and analyzed using FloJo FACS analysis software (Tree Star, Inc., Ashland, Oreg.).

[3] = system: phosphorylated mTOR (p-mTOR); assay: Western blot of EOC whole cell lysates for phospho-mTOR; settings: EOC cells, 10 g/ml (as printed, FIG. 3 legend), 15 mins post-treatment
Excerpt: (§2) Protein preparation and cellular fractionation. After drug treatment, protein was extracted and measured as previously described (Alvero et al, 2006). For separation of the cytoplasmic and mitochondrial fractions, cell pellets were processed using the ApoAlert™ Cell Fractionation Kit (BD Biosciences, San Jose, Calif.) according to the manufacturer's instructions. For separation of the cytoplasmic and nuclear fractions, pellets were processed using NE-PER Nuclear and Cytoplasmic Extraction (Pierce Biotechnology, Inc., Rockford, Ill.).
(§3) SDS-PAGE and Western blots. Cell lysates (20 μg protein) were denatured in sample buffer (2.5% SDS, 10% glycerol, 5% β-mercapto-ethanol, 0.15 M Tris (pH=6.8) and 0.01% bromophenol blue) and subjected to 12% SDS-PAGE as previously described (Kamsteeg et al, 2003). […]

LC3-II = assay: Western blot of EOC whole cell lysates for LC3-II; settings: EOC cells, 10 g/ml (as printed, FIG. 3 legend)
Excerpt: as §2, §3

EOC cells [4] = assay: Mitochondrial depolarization using JC-1 (flow cytometry); settings: 10 pg/ml (as printed, FIG. 5 legend)
Excerpt: Assay of mitochondrial depolarization using JC-1. After treatment, cells were trypsinized and stained with JC-1 dye using the Mitocapture™ mitochondrial apoptosis detection kit (BioVision Research Products, Mountain View, Calif.) according to manufacturer's instruction. Data was acquired using BD LSR II System and analyzed using BD FACSDiva Software™.

Bid, Bax, Beclin-1 = assay: Western blot of cell lysates and mitochondrial fractions for Bid, Bax, Beclin-1; settings: EOC cells
Excerpt: as §2
SDS-PAGE and Western blots. Cell lysates (20 μg protein) were denatured in sample buffer (2.5% SDS, 10% glycerol, 5% β-mercapto-ethanol, 0.15 M Tris (pH=6.8) and 0.01% bromophenol blue) and subjected to 12% SDS-PAGE as previously described (Kamsteeg et al, 2003). The following antibodies and concentrations were used: mouse anti-XIAP (BD, 1:1,000), rabbit anti-MAP LC3 (1:200), rabbit anti-actin (Sigma, 1:10,000), rabbit anti-phosphorylated Akt (Cell Signaling, 1:1,000), rabbit anti-Akt (Cell Signaling, 1:1000), rabbit anti-phosphorylated mTOR (Cell Signaling, 1:1000), rabbit anti-mTOR (Cell Signaling, 1:1000), rabbit anti-cytochrome c (Clontech Laboratories, Inc, Mountainview, Calif., 1:100), rabbit anti-Omi (R&D Systems, Minneapolis, Minn., 1:5000), rabbit anti-Bid (Cell Signaling, 1:1000), mouse anti-Bax (BD Pharmingen, 1:250), rabbit anti-VDAC (Sigma Aldrich, 1:2000), mouse anti-Bcl2 (BD Pharmingen, 1:500), rabbit anti-AIF (Sigma Aldrich, 1:1000), rabbit anti-EndoG (Sigma Aldrich, 1:1000), mouse anti-topoisomerase I (BD Pharmingen, 1:10,000). Proteins were visualized using enhanced chemiluminescence (Pierce, Rockford Ill.).

[5] = dose-escalating, 48 hr exposure

`COc1ccc(C2c3ccc(O)cc3OCC2c2ccc(O)cc2)cc1` (centres unmarked) [Compound 10, 3-(4-hydroxyphenyl)-4-(4-methoxyphenyl)chroman-7-ol] was tested, and the “effect of zVAD-fmk pre-treatment on induced apoptosis” value (HPAC cells; 10 μM zVAD-fmk 1 hr before 10 μM Compound 10, 42-46 h) was “did not inhibit”, the “effect of zVAD-fmk pre-treatment on induced necrosis” value (HPAC cells; 10 μM zVAD-fmk 1 hr pre-treatment, 10 μM Compound 10 or Fas-activating antibody) was “inhibited” and the apoptosis (HPAC cells; [5]) was “induced apoptosis in a dose-dependent fashion”. The necrosis (HPAC cells; [5]) was “Very little necrosis” and the “caspase 2, 3 and 9 activation” value [1] was “activated”.

In the case of `COc1ccc(C2c3ccc(O)c(C)c3OCC2c2ccc(O)cc2)cc1` (centres unmarked) [Compound 1, 3-(4-hydroxyphenyl)-4-(4-methoxyphenyl)-8-methylchroman-7-ol], the “cells staining positively for both Hoechst and PI (fragmented DNA)” value (EOC cells [2]) is reported as 95%, the p-mTOR level [3] is reported as “down-regulated” and the “levels of LC3-II” value (LC3-II) is reported as “significant increase”. The “cells having depolarized mitochondria” value (EOC cells [4]; 1 h) was 30%, the “cells having depolarized mitochondria” value (EOC cells [4]; 4 h) was 50% and the “mitochondrial translocation of Bax” value (Bid, Bax, Beclin-1; 10 μg/ml, 2 h post-treatment) was “induces mitochondrial translocation”. For the same compound, the “Beclin-1 translocation to the mitochondria” value (Bid, Bax, Beclin-1; 10 μg/ml, as early as 1 h post-treatment) was “translocates to the mitochondria”, the “activation of Bid” value (Bid, Bax, Beclin-1; 10 μg/ml, total cell lysates) was “does not induce” and the “Beclin-1 message or protein expression (RT-PCR, whole cell lysates)” value (Bid, Bax, Beclin-1; data not shown) was “no changes”.

From patent publication US20100130598A1, “METHODS FOR INDUCING PROGRAMMED CELL DEATH” (Novogen Research Pty Ltd., priority 2008, published 2010)
